Assay results taken from ChEMBL document CHEMBL1201862, “PubChem BioAssay data set” (2004).
The source made the active and inactive calls.

What was measured:
[1] = target: T1, Short transient receptor potential channel 4 (Mus musculus, UniProt Q9QUQ5); assay: calcium entry via TRPC4 opening agents – cell-based, HEK293 TRPC4/mu-opioid, Fluo-4 calcium, dose response (AID 434937); type: functional
T1 sequence (Q9QUQ5 whole entry): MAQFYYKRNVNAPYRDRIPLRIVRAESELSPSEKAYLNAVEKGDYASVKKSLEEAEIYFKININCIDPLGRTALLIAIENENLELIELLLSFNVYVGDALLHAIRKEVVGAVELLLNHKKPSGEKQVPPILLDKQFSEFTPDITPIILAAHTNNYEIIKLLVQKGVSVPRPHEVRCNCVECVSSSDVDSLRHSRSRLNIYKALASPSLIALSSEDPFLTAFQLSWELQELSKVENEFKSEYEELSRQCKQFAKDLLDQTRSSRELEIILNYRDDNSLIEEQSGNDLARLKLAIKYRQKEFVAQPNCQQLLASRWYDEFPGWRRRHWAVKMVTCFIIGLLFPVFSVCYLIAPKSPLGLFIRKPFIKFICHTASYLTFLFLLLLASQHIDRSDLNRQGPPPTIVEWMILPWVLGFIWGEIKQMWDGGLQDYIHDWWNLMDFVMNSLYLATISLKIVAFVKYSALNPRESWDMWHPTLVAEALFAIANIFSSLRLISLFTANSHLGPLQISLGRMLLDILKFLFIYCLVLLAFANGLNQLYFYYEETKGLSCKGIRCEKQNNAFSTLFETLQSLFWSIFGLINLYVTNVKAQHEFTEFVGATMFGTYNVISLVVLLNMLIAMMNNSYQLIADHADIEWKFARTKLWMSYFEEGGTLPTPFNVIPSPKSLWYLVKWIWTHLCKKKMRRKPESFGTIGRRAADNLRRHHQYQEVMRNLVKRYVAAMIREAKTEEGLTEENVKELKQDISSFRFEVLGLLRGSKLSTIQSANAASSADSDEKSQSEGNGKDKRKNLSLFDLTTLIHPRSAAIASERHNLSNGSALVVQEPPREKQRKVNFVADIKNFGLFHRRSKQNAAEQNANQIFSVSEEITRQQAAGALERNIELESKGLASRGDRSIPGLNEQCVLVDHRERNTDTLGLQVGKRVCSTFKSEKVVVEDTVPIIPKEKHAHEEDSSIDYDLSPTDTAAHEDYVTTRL

[2] = viability of PTEN-deleted HCT116 cells – cell-based, HCT116 PTEN knockout, dose response (AID 1047); type: functional;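 further: HCT116 colon tumor cells with PTEN knocked out; cells exposed to compound for 60 hours before readout; potency for loss of cell viability measured by luminescence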
[3] = target: T2, Rac GTPase-activating protein 1 (Homo sapiens, UniProt Q9H0H5); assay: blockers of MgcRacGAP-driven Rac1 GTP hydrolysis – biochemical, ADP Hunter fluorescence, primary and confirmatory, confirmation (AID 624330); type: functional
T2 sequence (Q9H0H5 whole entry): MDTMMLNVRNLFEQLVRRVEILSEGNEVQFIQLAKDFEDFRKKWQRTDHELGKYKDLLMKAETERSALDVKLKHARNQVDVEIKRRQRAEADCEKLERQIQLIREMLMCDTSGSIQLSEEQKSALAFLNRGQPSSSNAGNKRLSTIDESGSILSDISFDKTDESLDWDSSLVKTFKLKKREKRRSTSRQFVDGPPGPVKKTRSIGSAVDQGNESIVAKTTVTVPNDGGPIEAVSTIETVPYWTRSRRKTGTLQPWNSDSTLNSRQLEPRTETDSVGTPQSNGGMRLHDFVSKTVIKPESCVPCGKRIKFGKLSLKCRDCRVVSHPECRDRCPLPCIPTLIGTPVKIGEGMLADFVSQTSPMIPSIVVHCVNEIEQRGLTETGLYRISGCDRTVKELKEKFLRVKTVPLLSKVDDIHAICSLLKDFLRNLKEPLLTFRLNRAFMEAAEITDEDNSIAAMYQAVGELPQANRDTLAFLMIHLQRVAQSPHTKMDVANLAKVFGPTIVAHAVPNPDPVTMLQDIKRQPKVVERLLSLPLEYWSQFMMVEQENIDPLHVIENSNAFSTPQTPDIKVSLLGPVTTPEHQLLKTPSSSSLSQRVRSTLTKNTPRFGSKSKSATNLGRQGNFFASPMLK

[4] = viability of HCT116 lacking mutant beta-catenin – cell-based, human colon tumor, dose response (AID 1045); type: functional;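 further: HCT116 colon tumor cells with beta catenin knocked out; cells exposed to compound for 60 hours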
Protein skinhead-1 = target: T3, Protein skinhead-1 (Caenorhabditis elegans, UniProt P34707); type: functional
T3 sequence (P34707 whole entry): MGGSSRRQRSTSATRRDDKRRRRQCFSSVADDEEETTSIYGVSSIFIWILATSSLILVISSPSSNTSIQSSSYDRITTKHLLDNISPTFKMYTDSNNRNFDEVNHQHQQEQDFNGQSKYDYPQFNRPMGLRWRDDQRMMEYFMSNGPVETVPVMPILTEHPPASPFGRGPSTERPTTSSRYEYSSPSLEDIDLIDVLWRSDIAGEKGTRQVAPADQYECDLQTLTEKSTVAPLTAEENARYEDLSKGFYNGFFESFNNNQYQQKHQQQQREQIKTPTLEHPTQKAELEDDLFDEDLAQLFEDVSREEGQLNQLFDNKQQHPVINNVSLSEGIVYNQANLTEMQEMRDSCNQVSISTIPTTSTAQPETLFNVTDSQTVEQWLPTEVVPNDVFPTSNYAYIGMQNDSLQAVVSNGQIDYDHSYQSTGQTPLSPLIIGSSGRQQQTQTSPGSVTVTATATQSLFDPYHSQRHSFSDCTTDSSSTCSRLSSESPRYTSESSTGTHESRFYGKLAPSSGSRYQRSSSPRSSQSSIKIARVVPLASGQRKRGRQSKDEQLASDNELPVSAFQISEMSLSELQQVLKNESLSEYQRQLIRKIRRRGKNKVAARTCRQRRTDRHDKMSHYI

[5] = loss of viability in HepG2 cells – cell-based, CellTiter-Glo, cherry-picked, cytotoxicity control for Shn3 inhibitor project, dose response (AID 624134); type: functional
[6] = reduction of Shn3 3'UTR-driven luciferase in osteoblasts – cell-based, Clone20 osteoblasts, firefly luciferase, cherry-picked, dose response (AID 624132); type: functional;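 further: firefly luciferase luminescence from reporter carrying the Shn3 3'UTR in osteoblasts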
[7] = non-specific 3'UTR reporter inhibition in Clone20-Shn3RL – cell-based, Renilla luciferase, cherry-picked, counter-screen for Shn3 inhibitor project, dose response (AID 624133); type: functional
cells = type: functional
Genome polyprotein = Genome polyprotein (dengue virus type 2, UniProt P29990); assay: flavivirus cap methylation enzyme inhibition – biochemical, confirmation dose response, primary screen (AID 588689); type: functional
Chain of Genome polyprotein (P29990 2492-3391 limits assumed): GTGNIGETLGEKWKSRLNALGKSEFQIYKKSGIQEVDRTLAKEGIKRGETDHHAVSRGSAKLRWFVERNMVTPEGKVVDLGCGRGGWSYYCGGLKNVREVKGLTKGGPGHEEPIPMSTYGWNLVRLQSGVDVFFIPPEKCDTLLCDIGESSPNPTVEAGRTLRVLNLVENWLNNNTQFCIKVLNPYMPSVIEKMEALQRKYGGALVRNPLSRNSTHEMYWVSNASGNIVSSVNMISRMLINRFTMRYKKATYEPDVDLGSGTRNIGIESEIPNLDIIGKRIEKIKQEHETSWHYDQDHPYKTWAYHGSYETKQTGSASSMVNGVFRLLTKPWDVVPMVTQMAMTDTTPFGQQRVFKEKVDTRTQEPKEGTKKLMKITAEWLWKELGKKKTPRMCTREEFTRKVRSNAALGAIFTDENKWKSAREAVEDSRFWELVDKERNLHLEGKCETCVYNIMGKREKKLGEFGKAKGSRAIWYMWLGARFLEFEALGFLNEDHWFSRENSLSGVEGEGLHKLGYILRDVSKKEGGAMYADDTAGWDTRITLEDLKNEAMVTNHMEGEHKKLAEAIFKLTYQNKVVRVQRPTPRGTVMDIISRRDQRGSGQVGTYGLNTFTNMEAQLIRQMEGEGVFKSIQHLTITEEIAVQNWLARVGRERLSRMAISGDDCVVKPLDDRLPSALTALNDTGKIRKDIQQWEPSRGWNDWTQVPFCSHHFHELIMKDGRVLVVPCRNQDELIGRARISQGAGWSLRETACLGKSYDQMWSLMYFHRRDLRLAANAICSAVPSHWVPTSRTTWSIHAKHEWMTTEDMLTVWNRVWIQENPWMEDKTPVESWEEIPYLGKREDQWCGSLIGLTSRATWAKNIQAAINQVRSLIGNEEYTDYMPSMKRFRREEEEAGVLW

[8] = target: T1, Short transient receptor potential channel 4; assay: block of DAMGO-driven TRPC4 calcium entry – cell-based, HEK293 TRPC4/mu-opioid, Fluo-4 calcium, dose response (AID 434942); type: functional;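 further: potency of inhibitors blocking the TRPC4 calcium response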
[9] = target: T4, Carboxy-terminal domain RNA polymerase II polypeptide A small phosphatase 1 (Homo sapiens, UniProt Q9GZU7); assay: CTDSP1 inhibitors, concentration-response, biochemical, absorbance readout, ultra-high-throughput screen actives (AID 540297); type: functional
T4 sequence (Q9GZU7 whole entry): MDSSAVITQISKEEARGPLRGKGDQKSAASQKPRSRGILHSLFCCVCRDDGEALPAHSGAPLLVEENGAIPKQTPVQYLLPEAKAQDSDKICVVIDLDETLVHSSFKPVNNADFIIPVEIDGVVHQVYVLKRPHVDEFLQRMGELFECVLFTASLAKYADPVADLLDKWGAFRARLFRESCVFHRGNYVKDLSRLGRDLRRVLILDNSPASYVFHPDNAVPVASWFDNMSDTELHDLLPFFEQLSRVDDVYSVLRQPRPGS

Streptokinase A = target: T5, Streptokinase A (Streptococcus pyogenes serotype M1, UniProt P10520); assay: viability-normalized secreted streptokinase activity reduction – plasminogen activation absorbance, OD405, dose response (AID 1914); type: functional, Streptococcus pyogenes M1 GAS;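 further: secreted streptokinase activity via plasminogen activation per viability signal from cell pellet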
T5 sequence (P10520 whole entry): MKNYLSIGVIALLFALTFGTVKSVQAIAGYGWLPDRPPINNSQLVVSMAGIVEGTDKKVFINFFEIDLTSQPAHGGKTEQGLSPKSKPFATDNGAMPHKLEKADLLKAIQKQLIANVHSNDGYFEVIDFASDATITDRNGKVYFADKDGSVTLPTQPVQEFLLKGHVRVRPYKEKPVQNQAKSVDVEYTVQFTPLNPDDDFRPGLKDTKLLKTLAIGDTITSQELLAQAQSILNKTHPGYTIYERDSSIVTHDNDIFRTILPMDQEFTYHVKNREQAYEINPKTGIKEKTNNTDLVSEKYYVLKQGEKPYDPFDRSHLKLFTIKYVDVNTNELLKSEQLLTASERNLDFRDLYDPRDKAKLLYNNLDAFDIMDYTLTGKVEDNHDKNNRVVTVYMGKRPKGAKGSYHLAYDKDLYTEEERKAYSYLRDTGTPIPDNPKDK

[10] = system: Streptococcus sp. 'group A'; assay: Streptococcus pyogenes SK(-)GAS viability under kanamycin – luminescence, BacTiterGlo, confirmation, counter-screen for streptokinase expression inhibitor project, dose response (AID 1900); type: functional, organism-based
Streptococcus = assay: GAS UMAA2166 growth inhibition – luminescence, BacTiterGlo, counter-screen for streptokinase expression inhibitor project, dose response (AID 1915); type: functional, organism-based;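 further: potency for reduction of bacterial viability or growth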
[11] = viability of uninfected HEp-2 cells – cell-based, HTS, cytotoxicity control for RSV inhibitor project, dose response (AID 2410); type: functional; details: human respiratory syncytial virus
[12] = target: FAD-linked sulfhydryl oxidase ALR (Homo sapiens, UniProt P55789); assay: ALR-catalysed DTT oxidation blockers – biochemical, H2O2 detection, luminescence, cherry-pick, dose response (AID 493248)
Chain of FAD-linked sulfhydryl oxidase ALR (P55789 whole entry): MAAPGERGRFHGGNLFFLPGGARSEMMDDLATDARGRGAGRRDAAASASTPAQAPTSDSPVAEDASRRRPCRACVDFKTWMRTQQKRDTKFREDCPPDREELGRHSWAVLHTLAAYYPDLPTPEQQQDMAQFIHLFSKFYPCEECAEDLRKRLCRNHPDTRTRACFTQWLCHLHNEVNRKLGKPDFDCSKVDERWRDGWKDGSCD

## Cc1ccc(Sc2cc(C(=O)NCCN(C)C)c3ccccc3n2)cc1
[1]
  EC50: 2.66 µM (active)

## O=C1CCCCCN1Sc1ccccc1
[2]
  EC50: 20.2 µM (active)
[3]
  IC50: 87.6 µM (active)
[4]
  EC50: 16.9 µM (active)

## CC(=O)/N=C1\SC2CS(=O)(=O)CC2N1c1cccc(Cl)c1Cl (stereo not given)
Protein skinhead-1
  IC50: > 100 µM (inactive)

## C=C1C(=O)OC2C=C(CO)C3OC3C3OC3(C)CC(OC(=O)/C(=C/C)COC(C)=O)C12 (stereo not given)
[5]
  AC50: 32.2 µM (active)
[6]
  AC50: 5.89 µM (active)
[7]
  AC50: 9.84 µM (active)

## Cc1cc(C)c(C(=O)COC(=O)c2ccc([N+](=O)[O-])o2)cc1C
cells
  IC50: 1 µM (active)

## COC(=O)COc1ccc(S(=O)(=O)N2CCCCCC2)cc1
cells
  IC50: 33.5 µM (active)

## CC1(C)CC(=O)C(=Cc2cn(CCC#N)nc2-c2ccc(Cl)cc2)C(=O)C1
Genome polyprotein
  IC50: 31.8 µM (active)

## CCOC(=O)C1(CCc2ccccc2)CCN(Cc2ccc(O)cc2)CC1
[1]
  EC50: 5.31 µM (active)
[8]
  EC50: 2.99 µM (active)

## COc1cc(/C=C2\C(=N)N3N=C(S(C)(=O)=O)SC3=NC2=O)ccc1OC(=O)c1ccco1
[9]
  IC50: 4.55 µM (active)

## O=C(Oc1ccc(/N=C2\C(=O)c3ccccc3C(O)=C2Cl)cc1)c1ccc([N+](=O)[O-])cc1
Streptokinase A
  EC50: > 150 µM (not active)
[2]
  EC50: 9.05 µM (active)
[10]
  EC50: 20.7 µM (active)
[4]
  EC50: 4.97 µM (active)
Streptococcus
  EC50: 44.1 µM (active)

## O=C(O)c1cc(S(=O)(=O)N2CCN(S(=O)(=O)c3ccc4ccccc4c3)CC2)ccc1Br
[9]
  IC50: 6.22 µM (active)

## Cc1ccn2nc(S(=O)(=O)Nc3c(F)cccc3F)nc2n1
cells
  IC50: 11.2 µM (active)

## CCO/C(O)=C/c1nc2ccccc2oc1=O
cells
  IC50: 2.88 µM (active)

## Cc1ccc([N+](=O)[O-])cc1/N=C(\c1cccc(Br)c1)N1CCOCC1
[11]
  CC50: 40.2 µM (active)

## Cc1ccc(-c2csc(N=C(N)N)n2)cc1
[12]
  AC50: 1.05 µM (active)
[11]
  CC50: 46.4 µM (active)
